A short description of the series: Stability of MRI-visibility of grafted substrates after incubation in PBS. The class given is physicochemical. As to conditions: grafted on substrates (PP meshes, thread-like shape); two months in PBS medium (pH=7.4) at 37° C.; FIG. 9C. Here is the method:
Bruker 7T BIOSPEC 70/20, “mini-imaging” configuration (gradient BGA12 675 mt/m, resonator “bird cage” 35 mm). After a set of marker gradient echo sequences, a spin3D echo sequence was acquired (FOV 3*3*1 cm matrix 128*128*48, TR=3000 ms, TE=8 ms (TEeff=16), RF=8, acquisition time of 0:51) with an inversion delay of 1300 ms.
MGE 3D sequences with TR/TE 110/3 ms and angles of 75, 30 and 15° were acquired.
Stability of MRI-visibility for PP modified meshes after 2 months in saline phosphate buffer (pH 7.4, 37° C.) is shown in FIG. 9C.

Take “4-Azidoaniline Modified Gd-Diethylene Triamine Pentaacetic Acid (Gd-DTPA-biN3) Complex”: the “MRI image after incubation (stability of MRI-visibility)” value was “does not show any image degradation”.

For the origin of these results see US11383008B2, “Surface-modified polymeric substrates grafted with a properties-imparting compound using clip chemistry” (Centre National de la Recherche Scientifique (CNRS), priority 2016, dated 2022).
